According to ChEMBL document CHEMBL3991601, “The target landscape of clinical kinase drugs” (Science, 2017):
The source made the active and inactive calls. No stated cut-off is given here; in the data, actives have a measured Kd and inactives only a lower limit.

What was measured:
[1] = target: Mitotic checkpoint serine/threonine-protein kinase BUB1 (Homo sapiens, UniProt O43683)
[2] = target: Hepatocyte growth factor receptor (Homo sapiens, UniProt P08581)
[3] = target: Ribosomal protein S6 kinase alpha-6 (Homo sapiens, UniProt Q9UK32)
[4] = target: T1, Serine/threonine-protein kinase Nek9 (Homo sapiens, UniProt Q8TD19)
T1 sequence (Q8TD19 whole entry): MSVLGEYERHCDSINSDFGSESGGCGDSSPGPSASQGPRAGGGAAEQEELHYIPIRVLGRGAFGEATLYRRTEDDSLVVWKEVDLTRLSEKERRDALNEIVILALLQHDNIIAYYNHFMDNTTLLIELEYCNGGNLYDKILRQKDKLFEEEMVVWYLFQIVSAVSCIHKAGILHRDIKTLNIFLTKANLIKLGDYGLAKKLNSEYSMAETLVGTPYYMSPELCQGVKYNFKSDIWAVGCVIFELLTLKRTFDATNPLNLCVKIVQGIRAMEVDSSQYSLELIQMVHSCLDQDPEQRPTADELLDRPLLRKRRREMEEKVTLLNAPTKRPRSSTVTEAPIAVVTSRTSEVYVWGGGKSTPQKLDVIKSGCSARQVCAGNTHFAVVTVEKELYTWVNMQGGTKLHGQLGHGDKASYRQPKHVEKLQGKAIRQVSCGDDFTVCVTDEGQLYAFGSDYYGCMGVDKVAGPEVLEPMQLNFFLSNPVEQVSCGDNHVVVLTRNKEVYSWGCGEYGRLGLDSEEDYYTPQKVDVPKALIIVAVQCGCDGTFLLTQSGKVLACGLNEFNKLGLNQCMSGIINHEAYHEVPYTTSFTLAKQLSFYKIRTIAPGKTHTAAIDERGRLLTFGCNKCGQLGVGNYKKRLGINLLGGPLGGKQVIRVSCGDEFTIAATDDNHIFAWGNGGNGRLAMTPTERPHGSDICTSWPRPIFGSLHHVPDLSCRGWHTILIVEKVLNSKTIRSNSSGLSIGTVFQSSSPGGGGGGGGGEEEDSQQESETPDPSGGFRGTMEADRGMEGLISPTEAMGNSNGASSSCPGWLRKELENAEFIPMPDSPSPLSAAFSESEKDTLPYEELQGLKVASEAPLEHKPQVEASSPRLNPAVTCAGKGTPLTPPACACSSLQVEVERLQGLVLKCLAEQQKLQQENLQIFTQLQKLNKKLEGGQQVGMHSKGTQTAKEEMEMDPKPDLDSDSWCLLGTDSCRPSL

[5] = target: Mitogen-activated protein kinase kinase kinase kinase 4 (Homo sapiens, UniProt O95819)
[6] = target: T2, Serine/threonine-protein kinase LATS1 (Homo sapiens, UniProt O95835)
T2 sequence (O95835 whole entry): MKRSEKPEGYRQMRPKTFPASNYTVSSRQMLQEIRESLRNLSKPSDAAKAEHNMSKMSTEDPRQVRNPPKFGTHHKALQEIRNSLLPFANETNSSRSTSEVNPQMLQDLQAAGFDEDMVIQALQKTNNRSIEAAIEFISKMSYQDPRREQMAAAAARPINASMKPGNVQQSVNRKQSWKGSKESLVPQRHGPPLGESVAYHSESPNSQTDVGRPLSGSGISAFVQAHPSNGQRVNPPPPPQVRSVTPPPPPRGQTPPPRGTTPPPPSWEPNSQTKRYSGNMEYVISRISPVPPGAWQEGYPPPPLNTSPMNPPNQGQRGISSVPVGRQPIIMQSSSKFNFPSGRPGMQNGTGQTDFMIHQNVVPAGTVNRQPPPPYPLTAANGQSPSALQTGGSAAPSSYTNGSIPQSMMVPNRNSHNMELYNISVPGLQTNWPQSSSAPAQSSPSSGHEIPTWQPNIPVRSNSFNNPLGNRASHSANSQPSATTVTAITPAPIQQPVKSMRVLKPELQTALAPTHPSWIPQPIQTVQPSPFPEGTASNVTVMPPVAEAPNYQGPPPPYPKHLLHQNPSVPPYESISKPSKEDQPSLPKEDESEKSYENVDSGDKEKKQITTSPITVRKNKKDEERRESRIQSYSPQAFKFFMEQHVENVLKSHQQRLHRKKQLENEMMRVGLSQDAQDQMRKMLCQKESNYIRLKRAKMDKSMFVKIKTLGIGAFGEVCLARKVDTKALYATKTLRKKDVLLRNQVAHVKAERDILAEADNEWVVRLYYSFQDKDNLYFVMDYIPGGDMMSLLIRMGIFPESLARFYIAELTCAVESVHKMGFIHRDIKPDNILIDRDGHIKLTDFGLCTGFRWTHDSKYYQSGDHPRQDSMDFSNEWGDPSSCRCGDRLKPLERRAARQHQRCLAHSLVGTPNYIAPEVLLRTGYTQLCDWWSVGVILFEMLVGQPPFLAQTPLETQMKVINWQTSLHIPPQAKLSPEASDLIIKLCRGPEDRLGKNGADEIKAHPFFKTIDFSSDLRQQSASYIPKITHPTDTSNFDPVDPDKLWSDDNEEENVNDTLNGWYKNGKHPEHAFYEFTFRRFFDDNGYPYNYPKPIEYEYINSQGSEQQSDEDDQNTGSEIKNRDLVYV

Chain of Hepatocyte growth factor receptor (P08581 whole entry): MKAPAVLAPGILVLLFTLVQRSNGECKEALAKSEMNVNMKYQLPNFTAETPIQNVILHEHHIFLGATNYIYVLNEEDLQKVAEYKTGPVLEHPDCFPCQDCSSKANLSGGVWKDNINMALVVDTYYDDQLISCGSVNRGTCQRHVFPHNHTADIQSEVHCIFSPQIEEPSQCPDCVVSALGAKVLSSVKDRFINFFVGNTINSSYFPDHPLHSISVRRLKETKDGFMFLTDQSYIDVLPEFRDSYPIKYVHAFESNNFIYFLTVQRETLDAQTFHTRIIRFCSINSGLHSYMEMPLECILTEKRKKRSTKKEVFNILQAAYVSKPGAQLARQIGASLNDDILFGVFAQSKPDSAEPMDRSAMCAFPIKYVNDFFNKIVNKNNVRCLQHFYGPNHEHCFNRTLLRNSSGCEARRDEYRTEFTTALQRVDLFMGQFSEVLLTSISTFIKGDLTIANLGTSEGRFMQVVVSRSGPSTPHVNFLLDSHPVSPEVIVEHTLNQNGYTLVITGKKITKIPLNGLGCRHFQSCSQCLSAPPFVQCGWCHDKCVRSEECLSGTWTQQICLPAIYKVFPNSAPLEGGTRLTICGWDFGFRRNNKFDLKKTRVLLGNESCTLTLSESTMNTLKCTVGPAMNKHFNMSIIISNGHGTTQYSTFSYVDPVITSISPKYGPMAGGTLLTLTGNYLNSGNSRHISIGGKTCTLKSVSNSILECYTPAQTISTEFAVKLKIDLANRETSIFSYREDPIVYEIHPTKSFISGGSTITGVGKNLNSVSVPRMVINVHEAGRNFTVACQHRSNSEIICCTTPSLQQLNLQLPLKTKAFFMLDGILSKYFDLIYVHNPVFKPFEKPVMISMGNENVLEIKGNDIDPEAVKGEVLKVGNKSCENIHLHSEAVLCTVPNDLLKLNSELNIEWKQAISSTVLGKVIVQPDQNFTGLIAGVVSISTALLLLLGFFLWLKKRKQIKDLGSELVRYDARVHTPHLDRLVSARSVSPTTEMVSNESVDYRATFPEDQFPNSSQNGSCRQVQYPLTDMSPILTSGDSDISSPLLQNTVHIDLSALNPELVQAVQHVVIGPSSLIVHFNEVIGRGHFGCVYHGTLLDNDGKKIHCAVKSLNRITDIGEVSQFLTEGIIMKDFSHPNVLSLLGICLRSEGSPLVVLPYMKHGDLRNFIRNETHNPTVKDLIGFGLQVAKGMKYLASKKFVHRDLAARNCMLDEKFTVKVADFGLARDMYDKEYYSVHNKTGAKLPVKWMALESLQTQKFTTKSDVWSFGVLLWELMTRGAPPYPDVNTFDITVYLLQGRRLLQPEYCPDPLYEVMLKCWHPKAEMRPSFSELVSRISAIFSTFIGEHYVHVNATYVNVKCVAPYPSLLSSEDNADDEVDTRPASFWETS
Chain of Mitogen-activated protein kinase kinase kinase kinase 4 (O95819 whole entry): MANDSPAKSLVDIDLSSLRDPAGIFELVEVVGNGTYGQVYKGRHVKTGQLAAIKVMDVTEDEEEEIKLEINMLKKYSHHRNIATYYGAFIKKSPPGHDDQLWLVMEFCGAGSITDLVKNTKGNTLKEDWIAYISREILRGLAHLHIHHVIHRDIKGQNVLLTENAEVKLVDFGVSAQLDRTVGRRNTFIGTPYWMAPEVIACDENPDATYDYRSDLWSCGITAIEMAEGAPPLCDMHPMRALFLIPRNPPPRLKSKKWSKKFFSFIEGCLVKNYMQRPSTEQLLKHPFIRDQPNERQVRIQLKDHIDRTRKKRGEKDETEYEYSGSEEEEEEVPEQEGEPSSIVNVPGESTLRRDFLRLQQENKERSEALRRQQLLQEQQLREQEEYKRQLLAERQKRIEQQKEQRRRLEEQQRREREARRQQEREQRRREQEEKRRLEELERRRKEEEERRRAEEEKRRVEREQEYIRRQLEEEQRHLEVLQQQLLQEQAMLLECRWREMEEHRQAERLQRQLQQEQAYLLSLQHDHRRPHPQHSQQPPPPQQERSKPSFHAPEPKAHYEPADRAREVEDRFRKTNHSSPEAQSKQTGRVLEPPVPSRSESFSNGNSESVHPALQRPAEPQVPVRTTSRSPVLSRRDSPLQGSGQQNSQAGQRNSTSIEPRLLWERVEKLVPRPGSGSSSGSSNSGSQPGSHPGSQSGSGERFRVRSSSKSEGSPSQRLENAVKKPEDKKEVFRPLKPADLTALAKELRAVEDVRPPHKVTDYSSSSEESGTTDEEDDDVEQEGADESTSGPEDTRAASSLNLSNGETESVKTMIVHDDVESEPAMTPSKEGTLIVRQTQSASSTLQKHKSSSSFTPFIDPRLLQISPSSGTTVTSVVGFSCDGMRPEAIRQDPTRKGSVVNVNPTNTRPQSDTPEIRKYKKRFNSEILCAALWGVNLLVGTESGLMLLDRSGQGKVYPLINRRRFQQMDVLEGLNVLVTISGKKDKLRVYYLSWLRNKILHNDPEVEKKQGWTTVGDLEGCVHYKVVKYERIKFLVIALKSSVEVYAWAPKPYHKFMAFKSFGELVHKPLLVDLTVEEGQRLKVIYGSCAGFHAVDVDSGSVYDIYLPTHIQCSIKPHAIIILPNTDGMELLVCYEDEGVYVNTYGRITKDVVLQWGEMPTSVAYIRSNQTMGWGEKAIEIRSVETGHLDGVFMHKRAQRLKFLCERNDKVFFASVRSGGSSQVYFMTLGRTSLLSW
Chain of Mitotic checkpoint serine/threonine-protein kinase BUB1 (O43683 whole entry): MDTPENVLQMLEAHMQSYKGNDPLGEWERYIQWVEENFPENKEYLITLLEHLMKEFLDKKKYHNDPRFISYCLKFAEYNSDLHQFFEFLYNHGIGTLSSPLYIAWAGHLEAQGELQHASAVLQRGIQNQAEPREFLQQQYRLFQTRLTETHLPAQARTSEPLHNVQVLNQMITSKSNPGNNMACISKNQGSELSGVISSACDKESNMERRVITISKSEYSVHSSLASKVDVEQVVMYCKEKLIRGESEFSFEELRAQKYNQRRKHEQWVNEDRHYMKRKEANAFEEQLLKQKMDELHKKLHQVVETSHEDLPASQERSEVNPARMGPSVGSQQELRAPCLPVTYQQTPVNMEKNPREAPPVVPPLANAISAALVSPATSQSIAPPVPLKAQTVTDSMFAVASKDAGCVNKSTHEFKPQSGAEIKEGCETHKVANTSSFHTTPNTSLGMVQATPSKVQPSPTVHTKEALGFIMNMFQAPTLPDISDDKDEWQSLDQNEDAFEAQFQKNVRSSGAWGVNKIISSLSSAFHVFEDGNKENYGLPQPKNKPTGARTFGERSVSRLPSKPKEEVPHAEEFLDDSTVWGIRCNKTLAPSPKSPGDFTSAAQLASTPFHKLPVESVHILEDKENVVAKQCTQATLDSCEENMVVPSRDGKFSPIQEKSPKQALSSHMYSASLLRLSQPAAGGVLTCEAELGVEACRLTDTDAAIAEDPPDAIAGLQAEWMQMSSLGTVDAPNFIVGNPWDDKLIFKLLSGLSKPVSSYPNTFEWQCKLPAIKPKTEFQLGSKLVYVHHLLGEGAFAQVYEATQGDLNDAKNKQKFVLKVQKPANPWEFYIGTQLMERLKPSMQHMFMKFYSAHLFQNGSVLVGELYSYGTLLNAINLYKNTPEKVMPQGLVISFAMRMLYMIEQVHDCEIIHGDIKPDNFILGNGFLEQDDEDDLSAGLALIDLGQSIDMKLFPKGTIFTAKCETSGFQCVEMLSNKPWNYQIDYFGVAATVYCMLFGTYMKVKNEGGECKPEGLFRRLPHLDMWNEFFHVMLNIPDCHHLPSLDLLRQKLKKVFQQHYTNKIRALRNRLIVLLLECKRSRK
Chain of Ribosomal protein S6 kinase alpha-6 (Q9UK32 whole entry): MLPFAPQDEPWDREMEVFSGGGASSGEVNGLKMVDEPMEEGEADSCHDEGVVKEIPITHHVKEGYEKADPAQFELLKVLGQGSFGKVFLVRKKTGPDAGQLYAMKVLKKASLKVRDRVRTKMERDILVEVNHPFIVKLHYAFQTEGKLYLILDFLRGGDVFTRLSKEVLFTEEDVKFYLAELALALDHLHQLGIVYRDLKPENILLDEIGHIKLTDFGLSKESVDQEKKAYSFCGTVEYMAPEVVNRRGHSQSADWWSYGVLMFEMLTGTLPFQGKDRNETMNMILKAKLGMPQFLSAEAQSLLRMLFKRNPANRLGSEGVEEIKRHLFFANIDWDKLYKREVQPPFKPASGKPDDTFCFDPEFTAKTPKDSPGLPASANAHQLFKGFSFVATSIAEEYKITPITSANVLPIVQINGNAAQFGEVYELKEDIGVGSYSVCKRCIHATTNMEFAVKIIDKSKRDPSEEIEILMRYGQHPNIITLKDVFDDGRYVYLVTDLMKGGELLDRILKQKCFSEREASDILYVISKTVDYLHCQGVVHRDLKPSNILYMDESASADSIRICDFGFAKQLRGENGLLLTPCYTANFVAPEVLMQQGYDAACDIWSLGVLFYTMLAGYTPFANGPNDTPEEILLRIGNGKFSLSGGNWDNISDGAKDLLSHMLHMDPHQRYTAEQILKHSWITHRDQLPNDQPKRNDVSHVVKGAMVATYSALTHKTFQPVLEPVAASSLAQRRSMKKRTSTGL

| Compound | Kd [1] | Kd [2] | Kd [3] | Kd [5] | Kd [6] | Kd [4] |
| --- | --- | --- | --- | --- | --- | --- |
| C[C@@H](Oc1cc(C(=O)Nc2ccc(C(=O)N3CCN(C)CC3)cc2)nnc1N)c1c(Cl)ccc(F)c1Cl | > 30 µM (inactive) | 0.032 µM | > 30 µM (inactive) | > 30 µM (inactive) | > 30 µM (inactive) | > 30 µM (inactive) |
| C[C@H]1CNCCCN1S(=O)(=O)c1cccc2cncc(F)c12 | > 30 µM (inactive) | > 30 µM (inactive) | > 30 µM (inactive) | > 30 µM (inactive) | > 30 µM (inactive) | > 30 µM (inactive) |
| CC(=O)c1cnc2ccc(-c3cc(Cl)c(O)c(Cl)c3)nc2c1N[C@H]1CC[C@H](CN(C)C)CC1 | > 30 µM (inactive) | > 30 µM (inactive) | 0.057 µM (active) | 0.088 µM | 0.014 µM (active) | > 30 µM (inactive) |
| CCNC(=O)C#Cc1ccc2c(c1)NC(=O)/C2=C(\Nc1ccc(CN(C)C)cc1)c1ccccc1 | > 30 µM (inactive) | > 30 µM (inactive) | > 30 µM (inactive) | > 30 µM (inactive) | 0.635 µM (active) | > 30 µM (inactive) |
| C=CC(=O)N1CCC[C@H](n2c(=O)n(-c3ccc(Oc4ccccc4)cc3)c3c(N)ncnc32)C1 | > 30 µM (inactive) | > 30 µM (inactive) | > 30 µM (inactive) | > 30 µM (inactive) | > 30 µM (inactive) | > 30 µM (inactive) |
| Cc1nc2cc(-c3nn(C(C)C)c4ncnc(N)c34)ccc2o1 | > 30 µM (inactive) | > 30 µM (inactive) | > 30 µM (inactive) |  | > 30 µM (inactive) | > 30 µM (inactive) |
| COCc1c(-c2ccc(NC(=O)Nc3cc(C(F)(F)F)ccc3F)c(F)c2)c2c(N)ncnn2c1CN1CCOCC1 | > 30 µM (inactive) | > 30 µM (inactive) | 2.69 µM (active) | > 30 µM (inactive) | > 30 µM (inactive) | > 30 µM (inactive) |
| Nc1ncnc2c1c(-c1cccc(OCc3ccccc3)c1)cn2[C@H]1C[C@@H](CN2CCC2)C1 [AEW-541] | > 30 µM (inactive) | > 30 µM (inactive) | > 30 µM (inactive) | > 30 µM (inactive) | 3.88 µM (active) | > 30 µM (inactive) |
| COc1cc(Nc2ncc3c(n2)-c2ccc(Cl)cc2C(c2c(F)cccc2OC)=NC3)ccc1C(=O)O [ALISERTIB] | > 30 µM (inactive) |  | > 30 µM (inactive) |  | > 30 µM (inactive) | > 30 µM (inactive) |
| Cc1nc(NC(=O)N2CCC[C@H]2C(N)=O)sc1-c1ccnc(C(C)(C)C(F)(F)F)c1 [ALPELISIB] |  | > 30 µM (inactive) | > 30 µM (inactive) | > 30 µM (inactive) | > 30 µM (inactive) | > 30 µM (inactive) |
| O=C(Nc1c[nH]nc1-c1nc2cc(CN3CCOCC3)ccc2[nH]1)NC1CC1 [AT-9283] | 0.094 µM (active) |  |  |  | 0.045 µM (active) |  |
| NC(=O)Nc1cc(-c2cccc(F)c2)sc1C(=O)N[C@H]1CCCNC1 [AZD-7762] |  | > 30 µM (inactive) | 1.51 µM (active) | 0.035 µM (active) | > 30 µM (inactive) | > 30 µM (inactive) |
| CC(C)(C)c1nc(-c2cccc(NS(=O)(=O)c3c(F)cccc3F)c2F)c(-c2ccnc(N)n2)s1 [DABRAFENIB] | > 30 µM (inactive) |  | > 30 µM (inactive) | > 30 µM (inactive) | > 30 µM (inactive) | 0.053 µM (active) |
| Cn1cc(C2=C(c3cn(C4CCN(Cc5ccccn5)CC4)c4ccccc34)C(=O)NC2=O)c2ccccc21 [ENZASTAURIN] | > 30 µM (inactive) |  |  |  |  |  |
| CCOc1cc2ncc(C#N)c(Nc3ccc(F)c(Cl)c3)c2cc1NC(=O)/C=C/CN(C)C [PELITINIB] | > 30 µM (inactive) |  | > 30 µM (inactive) | > 30 µM (inactive) | > 30 µM (inactive) | > 30 µM (inactive) |
| CCCCCCCCCCCCCCCCCCOP(=O)([O-])OC1CC[N+](C)(C)CC1 [PERIFOSINE] |  |  | > 30 µM (inactive) | > 30 µM (inactive) | > 30 µM (inactive) | > 30 µM (inactive) |
| CNC(=O)c1cc(Oc2ccc(NC(=O)Nc3cc(C(C)(C)C)nn3-c3ccc4ncccc4c3)c(F)c2)ccn1 [REBASTINIB] | > 30 µM (inactive) | 0.126 µM (active) | > 30 µM (inactive) | 2.71 µM (active) | > 30 µM (inactive) |  |

More lines, main results first:

| Kd [1] | Kd [2] | Kd [3] | Kd [5] | Kd [6] | Compound | Kd [4] |
| --- | --- | --- | --- | --- | --- | --- |
| > 30 µM (inactive) |  |  |  |  | CNC(=O)c1ccccc1Sc1ccc2c(/C=C/c3ccccn3)n[nH]c2c1 [AXITINIB] |  |
|  |  | > 30 µM (inactive) | > 30 µM (inactive) | > 30 µM (inactive) | Cc1cc(C(=O)NOCCO)c(Nc2ccc(I)cc2F)n(C)c1=O [AZD-8330] | > 30 µM (inactive) |
| > 30 µM (inactive) |  |  |  |  | C[C@@H](Oc1cc(-n2cnc3ccc(CN4CCN(C)CC4)cc32)sc1C(N)=O)c1ccccc1C(F)(F)F [GSK-461364] |  |
| > 30 µM (inactive) | > 30 µM (inactive) | > 30 µM (inactive) |  | > 30 µM (inactive) | CCn1cc(-c2ccnc3[nH]c(-c4cccc(CN(C)C)c4)cc23)c(-c2ccc(NC(=O)N(C)C)cc2)n1 [GSK-1070916] | > 30 µM (inactive) |
|  |  | > 30 µM (inactive) | > 30 µM (inactive) | 0.681 µM (active) | CNC(=O)c1nn(C)c2c1C(C)(C)Cc1cnc(Nc3ccc(N4CCN(C)CC4)cc3)nc1-2 [MILCICLIB] | 19.6 µM (active) |
| > 30 µM (inactive) |  | > 30 µM (inactive) | > 30 µM (inactive) | > 30 µM (inactive) | Cn1cc(-c2cnc3ccc4ccc(CS(=O)(=O)NCc5ccccn5)cc4c(=O)c3c2)cn1 [MK-8033] | > 30 µM (inactive) |
|  |  | > 30 µM (inactive) | > 30 µM (inactive) | > 30 µM (inactive) | COc1ncc(-c2ccc3nccc(-c4ccnnc4)c3c2)cc1NS(=O)(=O)c1ccc(F)cc1F [OMIPALISIB] | > 30 µM (inactive) |
| > 30 µM (inactive) |  | > 30 µM (inactive) |  |  | Cc1[nH]c(/C=C2\C(=O)Nc3ccccc32)c(C)c1CCC(=O)O [ORANTINIB] | > 30 µM (inactive) |
|  |  | > 30 µM (inactive) |  | > 30 µM (inactive) | NC(=O)c1c(OCc2c(F)cc(Br)cc2F)nsc1NC(=O)NCCCCN1CCCC1 [OSI-632] | > 30 µM (inactive) |
| > 30 µM (inactive) |  |  |  | 0.406 µM (active) | CC(=O)NCC(=O)N1[C@@H]2CC[C@H]1c1ccc(Nc3ncc(C(F)(F)F)c(NC4CCC4)n3)cc12 [PF-03814735] | > 30 µM (inactive) |
| > 30 µM (inactive) |  |  |  |  | N#CC[C@H](C1CCCC1)n1cc(-c2ncnc3[nH]ccc23)cn1 [RUXOLITINIB] |  |
|  | > 30 µM (inactive) | > 30 µM (inactive) | > 30 µM (inactive) | > 30 µM (inactive) | CN1C/C=C/CCOc2cccc(c2)-c2ccnc(n2)Nc2cccc(c2)C1 [ZOTIRACICLIB] | > 30 µM (inactive) |
